# Test system: P. falciparum 3D7 in RBCs, SYBR Green DNA fluorescence
# Test: antimalarial activity against intraerythrocytic 3D7 parasites – 3D7 strain, red blood cells, SYBR Green, cherry-picked, dose response (AID 652047)
row,SMILES,AC35
1,Cc1ccc(NC(=O)CN(C)C(=O)c2cccnc2Nc2cccc(C(F)(F)F)c2)cc1,7.58 µM
2,CC1=CC(=O)C=C(C)C1=NOS(=O)(=O)c1ccccc1,17.4 µM
3,O=[N+]([O-])c1cccc(C=NNc2ccc3ccccc3n2)c1O,4.23 µM
4,C=CCn1c(-c2cc(-c3ccc(C)cc3)nc3ccccc23)n[nH]c1=S,15.5 µM
5,CCn1c2ccc(C)cc2c2nc3cc(C(=O)O)ccc3nc21,42.6 µM
6,CCCn1nc(C(=O)N2CCN(S(=O)(=O)c3ccc(C)c(C)c3)CC2)c2ccccc2c1=O,11.7 µM
7,O=[N+]([O-])c1ccc2c(OCc3nnc(-c4ccccc4Br)o3)ncnc2c1,25.5 µM
8,CCCOc1ccc(S(=O)(=O)n2cc(F)c(=O)[nH]c2=O)cc1,30.4 µM
9,Clc1ccccc1C(c1ccccc1)(c1ccccc1)n1ccnc1,0.448 µM
10,O=C1OCC(CO)(CO)N=C1NNc1ccc(Cl)c(Cl)c1,19.1 µM
11,Cc1ccccc1Oc1nc(-c2ccccn2)nc2ccccc12,2.17 µM
12,C=C1C(=O)C23CCC4C(C)(C(=O)OC)CCCC4(C)C2CCC1(O)C3 (stereo not given),1.99 µM
13,O=C(Nc1ccc(Br)c(C(F)(F)F)c1)c1ccccc1,20 µM
14,CCC(C)n1ncn(-c2ccc(N3CCN(c4ccc(OCC5COC(Cn6cncn6)(c6ccc(Cl)cc6Cl)O5)cc4)CC3)cc2)c1=O (stereo not given),4.24 µM
15,CCCC(C)Sc1nc2c([nH]1)c(=S)n(C)c(=O)n2C (stereo not given),4.74 µM
16,O=C(NC(=S)N(CCc1ccccc1)CCc1ccccc1)c1ccco1,12 µM
17,CC(C)N1CCN(c2ccc(OCC3COC(Cn4cncn4)(c4ccc(Cl)cc4Cl)O3)cc2)CC1 (stereo not given),3.77 µM
18,CN(C)c1nc(-c2ccccn2)nnc1-c1ccccc1,1.13 µM
19,O=C1c2ccccc2-n2c1nc1ccccc1c2=O,0.181 µM
20,C(=C1c2ccccc2-c2ccccc21)c1ccncc1,12.1 µM
21,Clc1ccc(C2=NCCN2)cc1,5.64 µM
22,Oc1ccccc1-c1cc(-c2ccc3c(c2)OCCO3)n[nH]1,15.2 µM
23,CCN1C(=O)C(CC(=O)Nc2ccccc2Cl)N(NC(=O)c2cccc(F)c2)C1=S (stereo not given),21.2 µM
24,O=S(=O)(Nc1ccccc1)c1ccc(Oc2ncc(C(F)(F)F)cc2Cl)cc1,28.7 µM

row,SMILES,AC35
1,Cc1ccc(O)c(C2=NNC(c3ccc(Cl)cc3)C2)c1 (stereo not given),4.31 µM
2,Cc1ccc(Nc2cc(C)nn2-c2nc(C)cc(C)n2)cc1,2.38 µM
3,CCC(C)c1ccc(NC(=S)NCCn2cc(Br)cn2)cc1 (stereo not given),13.9 µM
4,O=[N+]([O-])c1cc(C(F)(F)F)ccc1NCCc1c[nH]c2ccc(O)cc12,28.3 µM
5,O=c1cc(CSc2ccc(Cl)cc2)nc(-c2ccccn2)[nH]1,1.93 µM
6,COc1ccc(/C=N/Nc2cc(C)nc(-n3nc(C)cc3C)n2)cc1,1.06 µM
7,Cc1ccc(Cl)cc1NC1=C/C(=N\S(=O)(=O)c2cccs2)c2ccccc2C1=O,0.0436 µM
8,Cc1ccc(NC(=S)c2nc3ccccc3[nH]2)c(C)c1,5.34 µM
9,O=C(Nc1nnc(SCc2ccc(F)cc2)s1)c1ccccn1,2.17 µM
10,CC(C)(C)C(=O)C(Oc1ccc(Cl)cc1)n1cncn1 (stereo not given),36.6 µM
11,O=c1c2ccccc2c(-c2ccc(O)cc2)nn1-c1cccc(C(F)(F)F)c1,5.55 µM
12,O/N=C(\c1ccc(Cl)cc1Cl)c1ncc(C(F)(F)F)cc1Cl,16.9 µM
13,CC1(C)C=Cc2c(ccc3c2OC[C@@H](c2ccc(O)cc2O)C3)O1,17.8 µM
14,CCCCCCCn1c(=O)c(C(=O)OC)c(N)c2ccccc21,13.6 µM
15,CCOC(=O)c1cc2c(=Cc3ccc(N(C)C)cc3)c3ccccc3n2[n+]1C,1.94 µM
16,O=C(Nc1nnc(-c2cccs2)o1)c1cccc(Oc2ccccc2)c1,23 µM
17,Cc1c(C(=O)O)cccc1-c1ccc(/C=N/Nc2ccc(Br)cc2)o1,20.2 µM
18,Cc1cccc(Oc2nc(-c3ccccn3)nc3ccccc23)c1,3.89 µM
19,CCCCNc1c(-c2cccc(-c3ccc(OC)cc3)c2)nc2ccc(C)cn12,2 µM
20,CC1CCN(c2nc(-c3ccncc3)nc3ccccc23)CC1,4.32 µM
21,COc1cnc(-c2ccccn2)nc1Oc1ccc(C(C)(C)C)cc1,2.05 µM
22,S=C(NCc1ccco1)Nc1ccc(Oc2ccc(Cl)cc2)cc1,24 µM
23,C=C(C)COc1ccc(-c2[nH]ncc2-c2ccccc2)c(O)c1,2.91 µM
24,CCCCCCn1c(=O)c(C(=O)Nc2ncccc2C)c(O)c2ccccc21,2.57 µM

row,SMILES,AC35
1,CC(NC(=S)NC1CCC(C(C)(C)C)CC1)c1ccccc1 (stereo not given),10.2 µM
2,CC(C)=CCc1c(O)ccc(C(=O)Cc2ccccc2)c1O,16.4 µM
3,C=CCNc1nc(-c2ccccn2)nnc1-c1ccccc1,1.21 µM
4,O=C(/C(=N/N=C/c1ccc(O)c(O)c1O)c1ccccc1)c1ccccc1,4.96 µM
5,CN(C)c1nc(SCc2ccc(Cl)cc2)nc2c1CCCC2,40.2 µM
6,Oc1cccc2ccc(Nc3ccccn3)nc12,0.182 µM
7,COc1cc2cnc(-c3ccccc3)c(C(=O)c3ccc(F)cc3)c2cc1OC,34.4 µM
8,CN(Cc1ccc(Cl)s1)C(=O)CCl,1.69 µM
9,CCC(NC(=S)NCc1ccc(F)cc1)c1ccc(C(C)C)cc1 (stereo not given),11.8 µM
10,COc1ccc(-c2cc(C(=O)N3CCN(c4ccccc4F)CC3)c3ccccc3n2)c(OC)c1,9.76 µM
11,CC(C)(C)n1nc(Cc2cccc3ccccc23)c2c(N)ncnc21,25.7 µM
12,Oc1ccc(/C=N/Nc2ccc(C(F)(F)F)cn2)c(O)c1,5.21 µM
13,CC12CC3(C)CC(C)(C1)CC(NC(=O)N1CCCC1)(C2)C3,22.2 µM
14,CCCCCCCCCCOC(=O)Cn1c(COc2ccccc2OC)[n+](C)c2ccccc21,0.401 µM
15,O=C(Nc1cc(Oc2ccc(Cl)cc2)cc([N+](=O)[O-])c1)c1ccco1,6.1 µM
16,Nc1cc2nc3ccccc3oc-2cc1=O,2.14 µM
17,CC(=O)C1=C(c2ccc(Br)cc2)C(=O)c2ccccc2C1=O,0.82 µM
18,CC(=O)NC(c1ccc(C)cc1)c1cc([N+](=O)[O-])c2cccnc2c1O (stereo not given),10.1 µM
19,Oc1ccc(N=Nc2ccc3c(c2)OCCO3)c2cccnc12,0.706 µM
20,O=C(Nc1nnc(-c2ccccc2)o1)c1ccc(Cl)cc1,12.4 µM
21,CCc1cc(SC#N)cc(C)c1NC(=O)CCl,7.77 µM
22,CC1CCc2c(C(=O)Nc3ccccn3)csc2C1 (stereo not given),28.7 µM
23,[O-][n+]1cccc2c(Br)cc(Br)c(O)c21,7.13 µM
24,CCCCCCC(Cl)(Cn1ccnc1)c1ccccc1 (stereo not given),4.06 µM

row,SMILES,AC35
1,Cc1ccc(-n2nnnc2SCC(=O)N2CCc3ccccc3C2)c(C)c1,30.7 µM
2,Cn1nc(C(F)(F)F)c(C#N)c1N1CCN(c2ccc(F)cc2)CC1,41.9 µM
3,O=C(Nc1nc(-c2ccccn2)cs1)c1ccc(Br)s1,0.663 µM
4,O=C(COc1ccc([N+](=O)[O-])cc1)Nc1nc(-c2ccccn2)cs1,6.63 µM
5,Cc1ccc2oc(-c3ccccc3)c(C(=O)O)c(=O)c2c1,16.2 µM
6,Cc1ccc(Sc2cc(C)nc(-c3ccccn3)n2)cc1,3.19 µM
7,COc1cnc(-c2ccccn2)nc1N(C)c1ccccc1,0.962 µM
8,O=C(O)c1ccccc1NC(c1ccccc1)c1ccc2cccnc2c1O (stereo not given),10.8 µM
9,Cc1ccc(NC2(c3nnnn3-c3c(C)cccc3C)CCCCC2)cc1,15.7 µM
10,CCCCCCCc1ccc(-c2ccc(O)cc2)nc1,7.43 µM
11,C[n+]1c2cc(N)ccc2cc2ccc(N)cc21,0.0327 µM
12,CCN(CC)C(=O)CSc1ncnc2sc(-c3ccccc3)cc12,35.6 µM
13,Cc1cccc2sc(NNC(=O)c3ccc(S(=O)(=O)N4CCCC(C)C4)cc3)nc12 (stereo not given),3.46 µM
14,CCC1=NN(C(=O)c2cccc(Br)c2)C(O)(c2ccc(Br)cc2)C1 (stereo not given),14.7 µM
15,CCOC(=O)N1C(=O)C2(CCCCC2)N(c2ccccc2Cl)C1=S,12.8 µM
16,Cc1c(C2(O)CCCCC2)[nH]c2ccc(C(F)(F)F)cc12,27.4 µM
17,O=CC1=C(c2ccccc2)Oc2ccccc2O1,8.24 µM
18,O=C(c1ccccc1)c1coc2c1C(=O)c1ccccc1C2=O,3.82 µM
19,COc1ccc(O)c(C(=O)CC(=O)c2ccc(F)cc2)c1,16.1 µM
20,O=C(OCC(=O)C12CC3CC(CC(C3)C1)C2)c1ccc(O)cc1,44.4 µM
21,Cc1ccc(Sc2ccc(NC(=O)CCl)cc2)cc1C,0.422 µM
22,O=C1c2cc(F)ccc2-n2c1nc1ccccc1c2=O,< 0.0235 µM
23,O=c1c(O)c(-c2ccccc2)oc2ccccc12,31.1 µM
24,Cc1ccoc1C(=O)Nc1cccc(Oc2ccccc2)c1,10.4 µM

row,SMILES,AC35
1,C=CCOC(Cn1ccnc1)c1ccc(Cl)cc1Cl (stereo not given),6.08 µM
2,O=c1c2ccccc2nc(-c2cccc(Cl)c2)n1O,25.4 µM
3,CCC(C)Sc1cccc(-c2nc3ccccn3c2NCc2ccccc2)c1 (stereo not given),16.8 µM
4,O=S1OC(c2ccccc2)c2cc(Cl)ccc21 (stereo not given),11.3 µM
5,OCCN(CCO)c1cc2c3ccccc3ccc2c2ccccc12,1.69 µM
6,CCCCOC(=O)/C=C/c1ccc(OC(=O)OC)c(OC(=O)OC)c1,14.7 µM
7,Cc1cc(C)c(C(=O)CC(=O)c2cccnc2)c(C)c1,6.77 µM
8,CCCCCCSc1ccc(-c2nc3ccccn3c2NCCCC)cc1,12.2 µM
9,CCCCNc1c(-c2ccc(-c3ccc(OC)cc3)c(OC)c2)nc2ccccn12,5.67 µM
10,CC(C)C(=O)NC(c1ccco1)c1ccc2cccnc2c1O (stereo not given),2.02 µM
11,Cc1ccccc1C(=O)NNC(=S)NC(=O)c1ccc(Cl)cc1Cl,41.1 µM
12,Cc1cc(Cl)ccc1C(=O)C1CCCN(C(=O)c2cncs2)C1 (stereo not given),26 µM
13,CC(=O)Oc1ccc(OC(C)=O)c(SCCCCCCl)c1,4.82 µM
14,O=[N+]([O-])c1ccc(Sc2cccc[n+]2[O-])c2nonc12,0.657 µM
15,CNc1ccc2oc(C[C@H]3O[C@@]4(CC[C@H]3C)O[C@H]([C@H](C)C(=O)c3ccc[nH]3)[C@H](C)C[C@H]4C)nc2c1C(=O)O,1.01 µM
16,Cn1ccc(=Nc2ccc(NC(=O)c3ccc(N=c4ccn(C)c5ccc([N+](=O)[O-])cc45)cc3)cc2)cc1,0.0417 µM
17,CCCCNC(=S)N/N=C1\CCCCc2ccccc21,18.3 µM
18,CCN(CC)c1ccc(/C=N/NC(=O)c2c(Cl)cnn2C)c(O)c1,3.27 µM
19,COc1ccc(Sc2nc(-c3ccccn3)ncc2OC)cc1,1.26 µM
20,Cc1c(Cc2ccccc2)c(NCCN(C)C)n2c(nc3ccccc32)c1C#N,7.32 µM
21,Cc1nc(SCc2ccc(OCCC(C)C)cc2)n[nH]1,16.5 µM
22,CC/C(=N/NC(=O)c1ccccc1O)c1c(C)[nH]n(-c2ccccc2)c1=O,34.9 µM
23,O=C(NCC1CC1(Cl)Cl)Nc1ccc(Cl)c(Cl)c1 (stereo not given),8.82 µM
24,Cc1cc(C(=O)COC(=O)Cc2n[nH]c(=O)c3ccccc23)c(C)n1-c1cccc(C(F)(F)F)c1,6.57 µM

# Reference: PubChem BioAssay AID652047 (Broad Institute, 2013)
